{
  "source": "paper PMC10245560",
  "about": "(bioRxiv, 2023)",
  "key": {"B. subtilis": {"test_system": "B. subtilis", "conditions": "ref Fage et al., 2020; cited from earlier work"}, "B. subtilis 168": {"test_system": "B. subtilis 168", "test": "Bacterial cell wall integrity", "format": "cell-based", "conditions": "phase-contrast microscopy"}, "[1]": {"test": "HS-AFM of fibrils on supported lipid bilayers", "format": "physicochemical", "conditions": "supported lipid bilayer with lipid II, errors are standard deviation, SD"}},
  "data": [
    {"compound": "C=C(CC/C=C\\C=C\\C[C@H](C)CC(=O)C[C@@H](O)CNC(=O)[C@H](C)[C@@H](C)OC(N)=O)C[C@@H](C)C/C(C)=C/C(=O)O", "note": "[kalimantacin]", "values": [
      {"measurement": "activity against B. subtilis", "setting": "B. subtilis", "value": "not active"}
    ]},
    {"compound": "hypeptin", "values": [
      {"measurement": "cell-shape deformations / blebbing phenotype", "setting": "B. subtilis 168", "value": "similarly observed"}
    ]},
    {"compound": "teixobactin", "values": [
      {"measurement": "height of fibrils above the membrane surface", "setting": "[1]", "value": "0.8 ± 0.1", "unit": "nm"},
      {"measurement": "cell-shape deformations / blebbing phenotype", "setting": "B. subtilis 168", "value": "similarly observed"}
    ]},
    {"compound": "CN[C@H](CC(C)C)C(=O)N[C@H]1C(=O)N[C@@H](CC(N)=O)C(=O)N[C@H]2C(=O)N[C@H]3C(=O)N[C@H](C(=O)N[C@H](C(=O)O)c4cc(O)cc(O)c4-c4cc3ccc4O)[C@H](O)c3ccc(c(Cl)c3)Oc3cc2cc(c3O[C@@H]2O[C@H](CO)[C@@H](O)[C@H](O)[C@H]2O[C@H]2C[C@](C)(N)[C@H](O)[C@H](C)O2)Oc2ccc(cc2Cl)[C@H]1O", "note": "[vancomycin]", "values": [
      {"measurement": "cell-shape deformations / blebbing phenotype", "setting": "B. subtilis 168", "value": "similarly observed"}
    ]}
  ]
}
